# Measurements: US20080214648A1, “Hiv Prodrugs Cleavable by Cd26” (priority 2003, published 2008)
# Tests used:
# [1] = target: purified CD26 (Homo sapiens, UniProt P27487); assay: Conversion of Val-Pro-PI 1 to PI 1 by purified CD26; assay type: biochemical
# Description: (§1) A: CD26; B: bovine serum; C: human serum (both 10% in PBS).
# (§2) Ten percent BS or HS converted 40 to 70% of Val-Pro-PI 1 to PI 1 in one hour (FIG. 10). Two percent BS and HS converted Val-Pro-PI 1 to PI 1 by 8% and 25%, respectively. After 4 hrs, 35% and 95% of compound was hydrolyzed by BS and HS, respectively (FIG. 11).
# (§3) Compounds were separated on a Reverse Phase RP-8 (Merck) using a gradient with buffer A (50 mM NaH2PO4+5 mM heptane sulfonic acid pH 3.2) and buffer B (acetonitrile).
# (§4) 0→2 min: 2% buffer B; 2→8 min: 20% buffer B; 8→10 min: 25% buffer B; 10→12 min: 35% buffer B; 12→30 min: 50% buffer B; 30→35 min: 50% buffer B; 35→40 min: 2% buffer B; 40→45 min: 2% buffer B. Rt values of Val-Pro-PI 1 and PI 1 were 18.7 and 17.7 min, respectively.
# [2] = Conversion of Val-Pro-PI 1 to PI 1 by bovine serum diluted in PBS; assay type: in vitro ADME; details: 2% bovine serum (BS) in PBS
# Description: as §1
# (§5) FIG. 3a: Bovine serum (2% in PBS), FIG. 3b: Human serum (2% in PBS).
# as §2, §3, §4
# [3] = Conversion of Val-Pro-PI 1 to PI 1 by human serum diluted in PBS; assay type: in vitro ADME; details: 2% human serum (HS) in PBS
# Description: as §1, §5, §2, §3, §4
# [4] = target: CD26 (Homo sapiens, UniProt P27487); assay: Competitive inhibition of CD26-catalysed conversion of GP-pNA to GP+pNA (purified CD26); assay type: biochemical
# Description: (§6) The CD26 catalytic reaction was measured by recording the increase of absorption caused by pNA release at 400 nm.
# [5] = target: T1, CD26 in bovine serum (Bos taurus, UniProt P81425); assay: Inhibition of GP-pNA conversion to pNA by 2% bovine serum in PBS; assay type: biochemical; details: 2% BS in PBS, compared with purified CD26
# T1 construct: Conversion of GP-pNA to pNA by two percent BS in PBS; from tissue; host or cells: bovine serum, 2% in PBS
# Description: as §6
# [6] = target: T2, CD26 in human serum (Homo sapiens, UniProt P27487); assay: Inhibition of GP-pNA conversion to pNA by 2% human serum in PBS; assay type: biochemical; details: HS 2% in PBS
# T2 construct: from tissue; host or cells: human serum, 2% in PBS
# Description: as §6
# [7] = time not printed (preceding sentence: one hour)
# Sequence of CD26 (P27487 whole entry, species assumed): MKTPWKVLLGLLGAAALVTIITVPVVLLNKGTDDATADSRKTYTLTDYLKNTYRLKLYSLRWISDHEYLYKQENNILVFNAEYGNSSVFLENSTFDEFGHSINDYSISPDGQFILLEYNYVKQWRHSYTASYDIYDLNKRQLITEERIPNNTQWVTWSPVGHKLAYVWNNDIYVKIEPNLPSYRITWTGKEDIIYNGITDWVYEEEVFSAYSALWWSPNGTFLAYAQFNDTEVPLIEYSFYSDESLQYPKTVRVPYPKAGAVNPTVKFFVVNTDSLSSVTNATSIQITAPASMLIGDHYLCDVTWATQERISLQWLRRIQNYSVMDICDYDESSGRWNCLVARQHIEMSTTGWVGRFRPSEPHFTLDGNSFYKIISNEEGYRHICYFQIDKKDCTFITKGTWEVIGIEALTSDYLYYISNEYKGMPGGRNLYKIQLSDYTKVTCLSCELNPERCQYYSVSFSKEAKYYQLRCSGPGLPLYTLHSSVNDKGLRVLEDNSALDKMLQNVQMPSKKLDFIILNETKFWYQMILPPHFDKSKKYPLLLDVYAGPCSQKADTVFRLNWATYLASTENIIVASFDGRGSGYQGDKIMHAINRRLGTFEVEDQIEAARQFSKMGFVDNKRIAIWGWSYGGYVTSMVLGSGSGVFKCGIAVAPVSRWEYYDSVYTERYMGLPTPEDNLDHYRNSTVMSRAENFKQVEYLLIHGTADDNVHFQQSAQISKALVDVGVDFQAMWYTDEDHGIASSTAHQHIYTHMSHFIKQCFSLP
# T2 sequence (P27487 39-766 limits assumed): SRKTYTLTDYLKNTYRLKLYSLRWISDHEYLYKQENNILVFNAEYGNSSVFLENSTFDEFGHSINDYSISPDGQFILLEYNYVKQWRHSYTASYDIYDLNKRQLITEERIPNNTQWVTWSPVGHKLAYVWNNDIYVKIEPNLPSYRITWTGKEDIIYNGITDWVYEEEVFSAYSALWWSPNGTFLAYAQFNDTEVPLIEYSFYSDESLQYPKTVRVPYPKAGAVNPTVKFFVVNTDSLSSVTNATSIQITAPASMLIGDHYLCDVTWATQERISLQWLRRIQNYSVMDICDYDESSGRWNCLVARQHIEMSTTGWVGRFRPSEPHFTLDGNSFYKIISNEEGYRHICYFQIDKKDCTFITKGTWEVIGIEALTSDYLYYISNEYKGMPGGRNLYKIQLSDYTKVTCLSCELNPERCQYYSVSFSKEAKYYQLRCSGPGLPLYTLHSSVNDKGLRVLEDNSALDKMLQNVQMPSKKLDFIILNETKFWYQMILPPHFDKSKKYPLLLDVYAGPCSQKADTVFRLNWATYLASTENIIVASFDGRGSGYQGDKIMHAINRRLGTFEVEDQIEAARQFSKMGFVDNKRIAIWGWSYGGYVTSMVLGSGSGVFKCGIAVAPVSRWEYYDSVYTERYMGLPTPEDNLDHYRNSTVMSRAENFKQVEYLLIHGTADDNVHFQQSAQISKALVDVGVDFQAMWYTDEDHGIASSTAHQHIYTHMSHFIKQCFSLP
# Sequence of purified CD26 (P27487 whole entry, species assumed): as the sequence (P27487 whole entry, species assumed) above
# T1 sequence (P81425 38-765): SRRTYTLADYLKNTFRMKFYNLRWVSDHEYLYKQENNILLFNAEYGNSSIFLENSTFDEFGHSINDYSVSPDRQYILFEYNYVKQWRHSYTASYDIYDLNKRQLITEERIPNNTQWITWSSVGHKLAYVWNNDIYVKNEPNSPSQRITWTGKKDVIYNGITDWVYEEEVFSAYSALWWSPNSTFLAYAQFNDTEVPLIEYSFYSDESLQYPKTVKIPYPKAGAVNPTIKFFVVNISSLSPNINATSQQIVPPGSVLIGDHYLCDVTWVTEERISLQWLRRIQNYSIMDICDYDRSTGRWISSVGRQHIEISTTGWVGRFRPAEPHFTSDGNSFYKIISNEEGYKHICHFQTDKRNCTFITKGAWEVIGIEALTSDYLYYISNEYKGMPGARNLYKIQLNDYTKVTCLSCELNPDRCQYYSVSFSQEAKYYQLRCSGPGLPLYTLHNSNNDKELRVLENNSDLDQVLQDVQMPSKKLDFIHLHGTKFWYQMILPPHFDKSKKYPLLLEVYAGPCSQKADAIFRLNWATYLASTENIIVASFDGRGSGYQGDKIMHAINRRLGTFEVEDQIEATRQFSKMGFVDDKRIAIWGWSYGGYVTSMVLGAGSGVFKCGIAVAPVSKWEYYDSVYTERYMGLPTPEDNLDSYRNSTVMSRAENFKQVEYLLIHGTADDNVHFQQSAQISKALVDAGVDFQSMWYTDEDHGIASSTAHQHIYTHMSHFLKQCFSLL
smiles,measurement,setting,value
CC(C)CN(C[C@@H](O)[C@H](Cc1ccccc1)NC(=O)O[C@H]1CO[C@H]2OCC[C@H]21)S(=O)(=O)c1ccc(CNC(=O)[C@@H]2CCCN2C(=O)[C@@H](N)C(C)C)cc1 [Val-Pro-PI 1],time to complete conversion of Val-Pro-PI 1 to PI 1,[1],≤ 60 min
same,compound hydrolyzed,[2]; after 4 hrs,35%
same,conversion of Val-Pro-PI 1 to PI 1,[2]; [7],8%
same,compound hydrolyzed,[3]; after 4 hrs,95%
same,conversion of Val-Pro-PI 1 to PI 1,[3]; [7],25%
same,inhibition of release of pNA from GP-pNA,"[4]; 20 μM Val-Pro-PI 1, 50 μM GP-pNA",could inhibit
same,competition with substrate GP-pNA for CD26,"[4]; 100 μM Val-Pro-PI 1, 50 μM GP-pNA",efficiently competed
same,inhibition of conversion of GP-pNA to pNA,[5],even more efficiently inhibited
same,inhibition of GP-pNA conversion to pNA,[6],competitively inhibited
